Data on 18 compounds can be found in PubChem BioAssay (NCI).

Some test systems named below: HCC-2998 colon; HCT-15 colon; HOP-92 NSCLC; MALME-3M melanoma; SF-268 CNS; SK-MEL-5 melanoma; SN12C renal; SR leukemia; NCI-H460 lung; HL-60(TB) leukemia.
Common to all, as to test: NCI tumour cell line growth inhibition, 48 h

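Growth conditions: 96-well plates. Treatment: test compound, 48 hours, 5 concentrations. Analysis: linear interpolation between bracketing concentrations; unreached endpoints set to highest concentration. Abbreviation: GI50, concentration required for 50% inhibition of growth. Definition used: TGI = concentration required for complete inhibition of growth.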

For the compound `COC(=O)C(=O)C(C(=O)C(=O)Nc1cc(C)ccc1C)c1nc2ccc(C(=O)c3ccccc3)cc2[nH]c1=O` (stereo unspecified), the TGI was more than 100 µM in the test with HCC-2998 colon; more than 100 µM in the test on HCT-15 colon; 91.8 µM with HOP-92 NSCLC; more than 100 µM in the test on MALME-3M melanoma; more than 100 µM in the test with SF-268 CNS; more than 100 µM with SK-MEL-5 melanoma. The TGI in the test with SN12C renal and with SR leukemia was more than 100 µM each time.
For `COc1ccc(/C=C2\c3cc(OC)c(OC)c(OC)c3CC[C@@H]2O)cc1F`, the GI50 in the test with HCC-2998 colon is 0.809 µM; in the test on HCT-15 colon, 0.19 µM; in the test on HOP-92 NSCLC, 25 µM; in the test on MALME-3M melanoma it was 0.261 µM; in the test with NCI-H460 lung, 0.299 µM; with SF-268 CNS, 0.748 µM. The figures for the GI50 in the test with SK-MEL-5 melanoma, in the test on SN12C renal and in the test with SR leukemia were 0.234 µM, 0.949 µM and 0.0899 µM, respectively. In addition, the TGI with HCC-2998 colon was 80.2 µM; in the test on HCT-15 colon, more than 100 µM; with HOP-92 NSCLC it was more than 100 µM; with MALME-3M melanoma, more than 100 µM; in the test with NCI-H460 lung it was 16.9 µM; in the test on SF-268 CNS it was more than 100 µM. The TGI in the test with SK-MEL-5 melanoma is 17.2 µM; in the test on SN12C renal, more than 100 µM; in the test with SR leukemia, more than 100 µM.
As to `CCCCN(CCCC)CCCn1cnc2ncccc2c1=O`, the TGI in the test with HCC-2998 colon, in the test with HOP-92 NSCLC, in the test with MALME-3M melanoma, in the test on NCI-H460 lung, in the test with SF-268 CNS and in the test on SK-MEL-5 melanoma was more than 100 µM each time. In addition, the TGI with SN12C renal and in the test with SR leukemia was more than 100 µM throughout.
As for `Cn1cnc([N+](=O)[O-])c1Sc1nccc(=O)[nH]1`, the TGI with HCC-2998 colon, in the test with HOP-92 NSCLC, in the test on MALME-3M melanoma, with NCI-H460 lung, with SF-268 CNS and in the test on SK-MEL-5 melanoma was more than 100 µM in each case. The TGI in the test with SN12C renal and in the test on SR leukemia was more than 100 µM each time.
For `O=C(O)CCC(C(=O)O)N1C(=O)C2C3CCC(C3)C2C1=O` (stereo unspecified), the TGI with HCT-15 colon, in the test on HOP-92 NSCLC, in the test with MALME-3M melanoma, in the test with NCI-H460 lung, in the test with SF-268 CNS and in the test on SK-MEL-5 melanoma was more than 100 µM each time. Moreover, the TGI in the test on SN12C renal and in the test on SR leukemia was more than 100 µM each time.
Turning to `COC1=CC(=O)c2nc(Cl)ccc2C1=O`, the GI50 in the test with HCC-2998 colon was 11.4 µM; in the test with HCT-15 colon it was 2.03 µM; in the test on HL-60(TB) leukemia, 2.01 µM; in the test with MALME-3M melanoma it was 1.72 µM; in the test with NCI-H460 lung, 14 µM; in the test with SF-268 CNS, 1.65 µM. The values for the GI50 with SK-MEL-5 melanoma, in the test on SN12C renal and in the test on SR leukemia were 1.66 µM, 1.72 µM and 3.17 µM, respectively. Also, the TGI in the test with HCC-2998 colon came to 23.6 µM; in the test on HCT-15 colon, 4.55 µM; in the test on HL-60(TB) leukemia it was 7.61 µM; in the test on MALME-3M melanoma it was 3.38 µM; in the test on NCI-H460 lung it was 29.3 µM; with SF-268 CNS it was 3.19 µM. The TGI was 3.02 µM in the test with SK-MEL-5 melanoma, 3.19 µM with SN12C renal and more than 100 µM with SR leukemia.
As for `O=C(/C=C/OC(=O)c1cccc(Cl)c1)c1ccc(Cl)cc1`, the GI50 with HCC-2998 colon is 29.3 µM; with HCT-15 colon, 50.7 µM; in the test on HOP-92 NSCLC it was 33.5 µM; in the test with MALME-3M melanoma, 2.32 µM; with NCI-H460 lung it was more than 100 µM; in the test on SF-268 CNS, 41.9 µM. Besides, the GI50 in the test on SK-MEL-5 melanoma is 55.2 µM; in the test with SN12C renal it was 28.5 µM; with SR leukemia, 22.9 µM. Also, the TGI in the test on HCC-2998 colon was more than 100 µM; in the test on HCT-15 colon it was more than 100 µM; with HOP-92 NSCLC it was more than 100 µM; in the test with MALME-3M melanoma, 39 µM; with NCI-H460 lung it was more than 100 µM; with SF-268 CNS, more than 100 µM. The TGI in the test with SK-MEL-5 melanoma was more than 100 µM; with SN12C renal, more than 100 µM; in the test on SR leukemia it was more than 92 µM.
In the case of `O=C(O[C@H]1CCN2C[C@H]3C[C@H](CN4C(=O)CCC[C@H]34)[C@@H]2C1)c1ccc(O)cc1`, the TGI with HCC-2998 colon, in the test with HCT-15 colon, in the test on HOP-92 NSCLC, in the test on MALME-3M melanoma, with NCI-H460 lung and with SF-268 CNS was more than 100 µM each time. The TGI in the test on SN12C renal and in the test with SR leukemia was more than 100 µM in each case.
With `O=c1c2c(c1=O)-c1ccccc1CN2`, the TGI with HCC-2998 colon, in the test with HCT-15 colon, in the test with HL-60(TB) leukemia, with HOP-92 NSCLC, in the test on MALME-3M melanoma and with NCI-H460 lung was more than 100 µM throughout. For the same compound, the TGI with SF-268 CNS, in the test on SK-MEL-5 melanoma and with SN12C renal was more than 100 µM each time.
For `CCOC(=O)C(C(O)c1ccc([N+](=O)[O-])cc1)P(=O)(OCC)OCC` (stereo unspecified), the TGI in the test on HCC-2998 colon is more than 100 µM; with HCT-15 colon it was more than 100 µM; in the test with HL-60(TB) leukemia it was 64 µM; in the test on HOP-92 NSCLC, 99.5 µM; in the test with MALME-3M melanoma, more than 100 µM; in the test on NCI-H460 lung it was more than 100 µM. Moreover, the TGI with SF-268 CNS, with SK-MEL-5 melanoma and in the test with SN12C renal was more than 100 µM throughout.
For `COc1ccc2nc(NC(=O)C(=O)NNC(=O)c3ccncc3)sc2c1`, the TGI in the test on HCC-2998 colon, in the test with HCT-15 colon, in the test on HL-60(TB) leukemia, in the test with HOP-92 NSCLC, with MALME-3M melanoma and in the test on NCI-H460 lung was more than 100 µM each time. Further, the TGI in the test on SF-268 CNS, in the test with SK-MEL-5 melanoma and with SN12C renal was more than 100 µM throughout.
As for `COC[C@H](C)N=CN1CCc2ccccc2C1(Cc1ccccc1)Cc1ccccc1`, the TGI with HCT-15 colon was 39.1 µM; with HOP-92 NSCLC, 29.8 µM; with MALME-3M melanoma, 24.7 µM; in the test on NCI-H460 lung it was 25.9 µM; in the test on SF-268 CNS, 45.9 µM; in the test on SK-MEL-5 melanoma, more than 100 µM. Moreover, the values for the TGI in the test on SN12C renal and with SR leukemia were 23.8 µM and 42 µM, respectively.
Regarding `C=CCc1c(O)c(C(=O)/C=C/c2ccccc2)c(OC)c2ccoc12`, the GI50 with HCC-2998 colon was 1.73 µM; with HCT-15 colon, 2.91 µM; in the test on HOP-92 NSCLC, 1.33 µM; in the test on MALME-3M melanoma, 5.8 µM; in the test on NCI-H460 lung, 2.79 µM; with SF-268 CNS, 2.8 µM. Besides, the GI50 in the test with SK-MEL-5 melanoma was 2.66 µM; with SN12C renal it was 3.79 µM; with SR leukemia, 2.15 µM. Moreover, the TGI with HCC-2998 colon worked out at 3.21 µM; in the test on HCT-15 colon, 11.8 µM; in the test with HOP-92 NSCLC, 4.82 µM; with MALME-3M melanoma it was 20.2 µM; in the test on NCI-H460 lung, 10.7 µM; in the test on SF-268 CNS, 10.7 µM. Besides, the figures for the TGI with SK-MEL-5 melanoma, with SN12C renal and with SR leukemia were 10.9 µM, 14.1 µM and 6.05 µM, respectively.
On to `COCCn1cc(-c2csc(-c3c[nH]c4ccc(Br)cc34)n2)c2cccnc21`, for which the GI50 is 3.8 µM with HCC-2998 colon; 3.14 µM with HCT-15 colon; 4.39 µM in the test on HOP-92 NSCLC; 3.66 µM in the test on MALME-3M melanoma; 3.07 µM with NCI-H460 lung; 3.24 µM in the test on SK-MEL-5 melanoma. The GI50 with SN12C renal is 7.72 µM; in the test with SR leukemia, 3.25 µM. Besides, the TGI is more than 100 µM in the test with HCC-2998 colon; more than 100 µM in the test with HCT-15 colon; 30.7 µM with HOP-92 NSCLC; 57.6 µM with MALME-3M melanoma; more than 100 µM in the test on NCI-H460 lung; 11.7 µM in the test on SK-MEL-5 melanoma. Also, the TGI in the test on SN12C renal and in the test with SR leukemia was more than 100 µM each time.
As for `CCCCCCCC(=O)[O][Hg][CH2]C1COC([CH2][Hg][O]C(=O)CCCCCCC)CO1` (stereo unspecified), the GI50 with HCC-2998 colon was 18 µM; with HCT-15 colon, 9.54 µM; in the test with HL-60(TB) leukemia it was 2.77 µM; in the test with HOP-92 NSCLC, 5.85 µM; in the test on MALME-3M melanoma, 3.24 µM; in the test on NCI-H460 lung it was 18.2 µM. In addition, the figures for the GI50 in the test on SF-268 CNS, with SK-MEL-5 melanoma and in the test on SN12C renal were 18.2 µM, 11 µM and 15.7 µM, respectively. The TGI was 33.1 µM in the test with HCC-2998 colon; 26.2 µM in the test on HCT-15 colon; more than 100 µM in the test with HL-60(TB) leukemia; 17.1 µM in the test with HOP-92 NSCLC; 11.6 µM in the test on MALME-3M melanoma; 37.4 µM in the test on NCI-H460 lung. The TGI with SF-268 CNS was found to be 36.9 µM; in the test with SK-MEL-5 melanoma it was 28.8 µM; with SN12C renal, 30.5 µM.
`[O-]c1c2c(nn1-c1ccc(Cl)cc1)c1ccccc1c[n+]2Cc1ccccc1`: the TGI with HCC-2998 colon, with HL-60(TB) leukemia, with MALME-3M melanoma, in the test on NCI-H460 lung, with SF-268 CNS and with SK-MEL-5 melanoma was more than 100 µM throughout. In addition, the TGI in the test with SN12C renal and in the test on SR leukemia was more than 100 µM throughout.
With `CC1CC[P+](c2ccccc2)(c2ccccc2)CC1`, the TGI is more than 100 µM in the test with HCC-2998 colon; more than 100 µM with HCT-15 colon; more than 100 µM in the test on HL-60(TB) leukemia; more than 100 µM in the test on MALME-3M melanoma; more than 100 µM in the test on NCI-H460 lung; 51.1 µM in the test on SK-MEL-5 melanoma. The TGI in the test on SN12C renal and in the test on SR leukemia was more than 100 µM throughout.
For the compound `C=C1Cc2cc(OC)c(OC)c(OC)c2-c2ccc(SC)c(=O)cc21`, the TGI with HCC-2998 colon is 0.402 µM; in the test with HCT-15 colon, 1.17 µM; in the test with HOP-92 NSCLC, 3.7 µM; in the test on MALME-3M melanoma, 2.57 µM; with NCI-H460 lung it was less than 0.035 µM; with SF-268 CNS, 1.42 µM. Further, the TGI with SK-MEL-5 melanoma was 13.3 µM; in the test with SN12C renal, 1.6 µM; in the test on SR leukemia, more than 100 µM.
